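Each compound was tested at five concentrations against cells in 96-well plates for 48 hours. At the TGI there is no net growth.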
Key:
Experiment in all cases: NCI-60 cell line screen, 48 h
PC-3 prostate = system: PC-3 prostate
UACC-257 melanoma = system: UACC-257 melanoma
SW-620 colon = system: SW-620 colon
T-47D breast = system: T-47D breast
MOLT-4 leukemia = system: MOLT-4 leukemia
A498 renal = system: A498 renal
MALME-3M melanoma = system: MALME-3M melanoma
NCI/ADR-RES ovarian = system: NCI/ADR-RES ovarian
K-562 leukemia = system: K-562 leukemia
UACC-62 melanoma = system: UACC-62 melanoma
A549 NSCLC = system: A549 NSCLC
SK-MEL-5 melanoma = system: SK-MEL-5 melanoma
MDA-MB-435 = system: MDA-MB-435
SNB-19 CNS = system: SNB-19 CNS
NCI-H522 lung = system: NCI-H522 lung
U251 CNS = system: U251 CNS
TK-10 renal = system: TK-10 renal
DU-145 prostate = system: DU-145 prostate
SN12C renal = system: SN12C renal
MDA-MB-231 breast = system: MDA-MB-231 breast
HS 578T breast = system: HS 578T breast
CAKI-1 renal = system: CAKI-1 renal
OVCAR-3 ovarian = system: OVCAR-3 ovarian
NCI-H226 lung = system: NCI-H226 lung
SF-268 CNS = system: SF-268 CNS
BT-549 breast = system: BT-549 breast
HT29 colon = system: HT29 colon
OVCAR-5 ovarian = system: OVCAR-5 ovarian
IGROV1 ovarian = system: IGROV1 ovarian
CCRF-CEM leukemia = system: CCRF-CEM leukemia
HOP-62 NSCLC = system: HOP-62 NSCLC
SR leukemia = system: SR leukemia
EKVX NSCLC = system: EKVX NSCLC
UO-31 renal = system: UO-31 renal
HCT-15 colon = system: HCT-15 colon
ACHN renal = system: ACHN renal
786-0 renal = system: 786-0 renal
SNB-75 CNS = system: SNB-75 CNS
LOX IMVI melanoma = system: LOX IMVI melanoma
M14 melanoma = system: M14 melanoma
OVCAR-4 ovarian = system: OVCAR-4 ovarian
SK-MEL-2 melanoma = system: SK-MEL-2 melanoma
NCI-H23 lung = system: NCI-H23 lung
MCF7 breast = system: MCF7 breast
RXF 393 renal = system: RXF 393 renal
SF-295 CNS = system: SF-295 CNS
COLO 205 colon = system: COLO 205 colon
HL-60(TB) leukemia = system: HL-60(TB) leukemia
SF-539 CNS = system: SF-539 CNS
MDA-N = system: MDA-N
KM12 colon = system: KM12 colon
SK-MEL-28 melanoma = system: SK-MEL-28 melanoma
SK-OV-3 ovarian = system: SK-OV-3 ovarian
HCT-116 colon = system: HCT-116 colon
HOP-92 NSCLC = system: HOP-92 NSCLC
HCC-2998 colon = system: HCC-2998 colon
RPMI-8226 leukemia = system: RPMI-8226 leukemia
OVCAR-8 ovarian = system: OVCAR-8 ovarian
NCI-H460 lung = system: NCI-H460 lung

C=C1C2CC[C@@](C)(O)C2[C@H]2OC(=O)C(=C)[C@@H]2C[C@H]1O (stereo partly specified)
TGI (PC-3 prostate): > 100 µM | TGI (UACC-257 melanoma): 41.8 µM | TGI (SW-620 colon): > 100 µM | TGI (T-47D breast): 42.1 µM | TGI (MOLT-4 leukemia): 60 µM | TGI (A498 renal): > 100 µM | TGI (MALME-3M melanoma): 30.5 µM | TGI (NCI/ADR-RES ovarian): 45.8 µM | TGI (K-562 leukemia): > 100 µM | TGI (UACC-62 melanoma): 30.1 µM | TGI (A549 NSCLC): > 100 µM | TGI (SK-MEL-5 melanoma): 28.8 µM | TGI (MDA-MB-435): > 100 µM | TGI (SNB-19 CNS): > 100 µM | TGI (NCI-H522 lung): 35.6 µM | TGI (U251 CNS): > 100 µM | TGI (TK-10 renal): 37.8 µM | TGI (DU-145 prostate): 35.5 µM | TGI (SN12C renal): 59 µM | TGI (MDA-MB-231 breast): 80.1 µM | TGI (HS 578T breast): 71.5 µM | TGI (CAKI-1 renal): 27.2 µM | TGI (OVCAR-3 ovarian): 64.1 µM | TGI (NCI-H226 lung): 40.1 µM | TGI (SF-268 CNS): > 100 µM | TGI (BT-549 breast): 24.8 µM | TGI (HT29 colon): 32.7 µM | TGI (OVCAR-5 ovarian): > 100 µM | TGI (IGROV1 ovarian): > 100 µM | TGI (CCRF-CEM leukemia): 17.9 µM | TGI (HOP-62 NSCLC): > 100 µM | TGI (SR leukemia): > 100 µM | TGI (EKVX NSCLC): > 100 µM | TGI (UO-31 renal): 31.5 µM | TGI (HCT-15 colon): 45.9 µM | TGI (ACHN renal): 22.7 µM | TGI (786-0 renal): 39.2 µM | TGI (SNB-75 CNS): > 100 µM | TGI (LOX IMVI melanoma): 35 µM | TGI (M14 melanoma): 31.9 µM | TGI (OVCAR-4 ovarian): 30.3 µM | TGI (SK-MEL-2 melanoma): 50.7 µM | TGI (NCI-H23 lung): 36 µM | TGI (MCF7 breast): 27.3 µM | TGI (RXF 393 renal): 71.9 µM | TGI (SF-295 CNS): > 100 µM | TGI (COLO 205 colon): 37.6 µM | TGI (HL-60(TB) leukemia): > 100 µM | TGI (SF-539 CNS): 27.2 µM | TGI (MDA-N): 91.1 µM | TGI (KM12 colon): 46.2 µM | TGI (SK-MEL-28 melanoma): 72.8 µM | TGI (SK-OV-3 ovarian): 80.2 µM | TGI (HCT-116 colon): > 100 µM | TGI (HOP-92 NSCLC): 88.9 µM | TGI (HCC-2998 colon): 37.3 µM | TGI (RPMI-8226 leukemia): > 100 µM | TGI (OVCAR-8 ovarian): 56.5 µM

CCOC(=O)C1(C(C)=O)OC(=O)c2cnccc21 (stereo unspecified)
TGI (PC-3 prostate): > 100 µM | TGI (UACC-257 melanoma): > 100 µM | TGI (SW-620 colon): > 100 µM | TGI (T-47D breast): > 100 µM | TGI (MOLT-4 leukemia): > 100 µM | TGI (A498 renal): > 100 µM | TGI (MALME-3M melanoma): > 100 µM | TGI (NCI/ADR-RES ovarian): > 100 µM | TGI (K-562 leukemia): > 100 µM | TGI (UACC-62 melanoma): > 100 µM | TGI (A549 NSCLC): > 100 µM | TGI (SK-MEL-5 melanoma): > 100 µM | TGI (MDA-MB-435): > 100 µM | TGI (SNB-19 CNS): > 100 µM | TGI (NCI-H460 lung): > 100 µM | TGI (NCI-H522 lung): > 100 µM | TGI (U251 CNS): > 100 µM | TGI (DU-145 prostate): > 100 µM | TGI (SN12C renal): > 100 µM | TGI (MDA-MB-231 breast): > 100 µM | TGI (HS 578T breast): > 100 µM | TGI (CAKI-1 renal): > 100 µM | TGI (OVCAR-3 ovarian): > 100 µM | TGI (NCI-H226 lung): > 100 µM | TGI (SF-268 CNS): > 100 µM | TGI (BT-549 breast): > 100 µM | TGI (HT29 colon): > 100 µM | TGI (OVCAR-5 ovarian): > 100 µM | TGI (IGROV1 ovarian): > 100 µM | TGI (CCRF-CEM leukemia): > 100 µM | TGI (SR leukemia): > 100 µM | TGI (EKVX NSCLC): > 100 µM | TGI (UO-31 renal): > 100 µM | TGI (HCT-15 colon): > 100 µM | TGI (ACHN renal): > 100 µM | TGI (786-0 renal): > 100 µM | TGI (SNB-75 CNS): > 100 µM | TGI (LOX IMVI melanoma): > 100 µM | TGI (M14 melanoma): > 100 µM | TGI (SK-MEL-2 melanoma): > 100 µM | TGI (NCI-H23 lung): > 100 µM | TGI (MCF7 breast): > 100 µM | TGI (RXF 393 renal): > 100 µM | TGI (SF-295 CNS): > 100 µM | TGI (COLO 205 colon): > 100 µM | TGI (HL-60(TB) leukemia): > 100 µM | TGI (SF-539 CNS): > 100 µM | TGI (MDA-N): > 100 µM | TGI (KM12 colon): > 100 µM | TGI (SK-MEL-28 melanoma): > 100 µM | TGI (SK-OV-3 ovarian): > 100 µM | TGI (HCT-116 colon): > 100 µM | TGI (HOP-92 NSCLC): > 100 µM | TGI (HCC-2998 colon): > 100 µM | TGI (RPMI-8226 leukemia): > 100 µM | TGI (OVCAR-8 ovarian): > 100 µM

O=[N+]([O-])c1ccc(/C(=C\c2ccccc2)Cn2ccnc2)cc1
TGI (PC-3 prostate): 95.7 µM | TGI (UACC-257 melanoma): > 100 µM | TGI (SW-620 colon): > 100 µM | TGI (T-47D breast): > 100 µM | TGI (MOLT-4 leukemia): > 100 µM | TGI (A498 renal): 72 µM | TGI (MALME-3M melanoma): > 100 µM | TGI (NCI/ADR-RES ovarian): 66 µM | TGI (K-562 leukemia): 69.2 µM | TGI (UACC-62 melanoma): > 100 µM | TGI (A549 NSCLC): > 100 µM | TGI (SK-MEL-5 melanoma): 94.4 µM | TGI (MDA-MB-435): > 100 µM | TGI (SNB-19 CNS): > 100 µM | TGI (NCI-H460 lung): > 100 µM | TGI (NCI-H522 lung): 57.8 µM | TGI (U251 CNS): > 100 µM | TGI (TK-10 renal): > 100 µM | TGI (DU-145 prostate): > 100 µM | TGI (SN12C renal): > 100 µM | TGI (MDA-MB-231 breast): 87.8 µM | TGI (HS 578T breast): 69.9 µM | TGI (CAKI-1 renal): 45.6 µM | TGI (NCI-H226 lung): > 100 µM | TGI (BT-549 breast): 87.8 µM | TGI (HT29 colon): 67.1 µM | TGI (OVCAR-5 ovarian): > 100 µM | TGI (IGROV1 ovarian): > 100 µM | TGI (CCRF-CEM leukemia): > 100 µM | TGI (HOP-62 NSCLC): > 100 µM | TGI (SR leukemia): > 100 µM | TGI (EKVX NSCLC): > 100 µM | TGI (UO-31 renal): > 100 µM | TGI (HCT-15 colon): > 100 µM | TGI (ACHN renal): > 100 µM | TGI (786-0 renal): > 100 µM | TGI (SNB-75 CNS): 86.4 µM | TGI (LOX IMVI melanoma): 54.1 µM | TGI (M14 melanoma): > 100 µM | TGI (OVCAR-4 ovarian): > 100 µM | TGI (SK-MEL-2 melanoma): 61.1 µM | TGI (NCI-H23 lung): > 100 µM | TGI (MCF7 breast): > 100 µM | TGI (RXF 393 renal): > 100 µM | TGI (SF-295 CNS): > 100 µM | TGI (COLO 205 colon): 30 µM | TGI (HL-60(TB) leukemia): 46.4 µM | TGI (SF-539 CNS): > 100 µM | TGI (MDA-N): 75.1 µM | TGI (KM12 colon): > 100 µM | TGI (SK-MEL-28 melanoma): > 100 µM | TGI (SK-OV-3 ovarian): > 100 µM | TGI (HCT-116 colon): > 100 µM | TGI (HOP-92 NSCLC): 79.9 µM | TGI (HCC-2998 colon): > 100 µM | TGI (RPMI-8226 leukemia): > 100 µM | TGI (OVCAR-8 ovarian): > 100 µM

— PubChem BioAssay (NCI)
